Source: patent US20260109707A1, “HETEROBIFUNCTIONAL COMPOUNDS AND METHODS OF TREATING DISEASE” (Halda Therapeutics OpCo. Inc., priority 2022, published 2026)
Read-outs that look alike come from different tables or passages of the source.

Legend:
[1] = test system: T-Rex 293 cell line SC3 cells having increased expression of androgen receptor protein due to exposure to doxycycline; experiment: Cellular growth inhibition assay, T-Rex 293 SC3 cells with doxycycline (CellTiter-Glo, 72 hours); assay type: cell-based; conditions: T-Rex 293 SC3 cells with increased androgen receptor expression due to doxycycline (10 ng/mL)
Outline: (§1)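 Doxycycline (10 ng/mL) was either included or omitted to toggle wild-type androgen receptor expression in SC3 cells, a T-Rex 293 clone, grown in stripped-serum, phenol red-free medium. After 72 hours with compound, viable cells were quantified by CellTiter-Glo 2.0.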

[2] = test system: T-Rex 293 cell line SC3 cells lacking increased expression of androgen receptor protein; experiment: Cellular growth inhibition assay, T-Rex 293 SC3 cells without doxycycline (CellTiter-Glo, 72 hours); assay type: cell-based; conditions: T-Rex 293 cell line SC3 cells not exposed to doxycycline (lacking increased androgen receptor expression)
Outline: as §1

[3] = test system: VCaP cells; experiment: Cellular growth inhibition assay for VCaP cells (CellTiter-Glo, 72 hours); assay type: cell-based, human
Outline: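 Luminescent viability signal after 72 h of compound exposure gave GI50 values by four-parameter nonlinear regression. Compounds were added in 0.5% DMSO to cells plated 24 h earlier at 5000/well in DMEM containing 10% FBS.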

[4] = test system: T47D cells; experiment: Cellular growth inhibition assay for T47D cells (CellTiter-Glo, 72 hours); assay type: cell-based, human; conditions: 72 hours treatment
Outline: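 Luminescence from CellTiter-Glo 2.0 after 72 h of compound exposure gives the viability signal. Cells grew in insulin-supplemented (0.2 units/mL) DMEM with 10% FBS and were treated one day after seeding at 0.5% DMSO. GI50 values come from four-parameter nonlinear regression.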

GI50 ([3]; Homo sapiens, VCaP, 72 h) [nM]	GI50 ([4]; Homo sapiens, T47D, 72 h) [nM]	GI50 [3] [nM]	GI50 [4] [nM]	SMILES	GI50 ([1]; 72 h) [nM]	GI50 ([2]; 72 h) [nM]	GI50 [1] [nM]	GI50 [2] [nM]
< 500	< 500			Cc1sc2c(c1C)C(c1ccc([C@H]3C[C@@H](C4CCN(c5ccc(C(=O)N[C@H]6CC[C@H](Oc7ccc(C#N)c(Cl)c7)CC6)nn5)CC4)C3)cc1)=N[C@H](Cc1ncco1)c1nnc(C)n1-2 [I-372]	< 500	< 500		
< 500	< 500			Cc1sc2c(c1C)C(c1ccc([C@H]3C[C@H](C4CCN(c5ccc(C(=O)N[C@H]6CC[C@H](Oc7ccc(C#N)c(Cl)c7)CC6)nn5)CC4)C3)cc1)=N[C@@H](Cc1ncco1)c1nnc(C)n1-2 [I-373]	< 500	> 3000		
> 3000	> 3000			Cc1sc2c(c1C)C(c1ccc([C@H]3C[C@@H]([C@@H]4CCCN(c5ccc(C(=O)N[C@H]6CC[C@H](Oc7ccc(C#N)c(Cl)c7)CC6)nn5)C4)C3)cc1)=N[C@@H](Cc1ncco1)c1nnc(C)n1-2 [I-374]	> 3000	> 3000		
< 500	> 3000			Cc1sc2c(c1C)C(c1ccc([C@H]3C[C@H]([C@H]4CCCN(c5ccc(C(=O)N[C@H]6CC[C@H](Oc7ccc(C#N)c(Cl)c7)CC6)nn5)C4)C3)cc1)=N[C@@H](Cc1ncco1)c1nnc(C)n1-2 [I-375]	< 500	> 3000		
< 500	< 500			Cc1sc2c(c1C)C(c1ccc([C@H]3C[C@@H]([C@H]4CCCN(c5ccc(C(=O)N[C@H]6CC[C@H](Oc7ccc(C#N)c(Cl)c7)CC6)nn5)C4)C3)cc1)=N[C@@H](Cc1ncco1)c1nnc(C)n1-2 [I-376]	< 500	< 500		

Second part, the compound before the results:

SMILES	GI50 ([3]; Homo sapiens, VCaP, 72 h) [nM]	GI50 ([4]; Homo sapiens, T47D, 72 h) [nM]	GI50 [3] [nM]	GI50 [4] [nM]	GI50 ([1]; 72 h) [nM]	GI50 ([2]; 72 h) [nM]	GI50 [1] [nM]	GI50 [2] [nM]
Cc1sc2c(c1C)C(c1ccc([C@H]3CC[C@@]4(C3)CN(c3ccc(C(=O)N[C@H]5CC[C@H](Oc6ccc(C#N)c(Cl)c6)CC5)nn3)CCO4)cc1)=N[C@@H](Cc1ncco1)c1nnc(C)n1-2 [I-364]	< 500	< 500			< 500	> 3000		
Cc1sc2c(c1C)C(c1ccc(CC3CCC4(CC3)CCN(c3ccc(C(=O)N[C@H]5CC[C@H](Oc6ccc(C#N)c(Cl)c6)CC5)nn3)CC4)cc1)=N[C@@H](Cc1ncco1)c1nnc(C)n1-2 [I-365]			< 500	< 500			< 500	500 to 1500
Cc1sc2c(c1C)C(c1ccc(CN3CCC4(CC3)CCN(c3ccc(C(=O)N[C@H]5CC[C@H](Oc6ccc(C#N)c(Cl)c6)CC5)nn3)CC4)cc1)=N[C@@H](Cc1ncco1)c1nnc(C)n1-2 [I-366]	< 500	< 500			< 500	< 500		
Cc1sc2c(c1C)C(c1ccc(N3CCC4(CCCN(c5ccc(C(=O)N[C@H]6CC[C@H](Oc7ccc(C#N)c(Cl)c7)CC6)nn5)C4)CC3)cc1)=N[C@@H](Cc1ncco1)c1nnc(C)n1-2 [I-367]	< 500	< 500			< 500	< 500		
Cc1sc2c(c1C)C(c1ccc(N3CCC4(CC3)CCN(c3ccc(C(=O)N[C@H]5CC[C@H](Oc6ccc(C#N)c(Cl)c6)CC5)nn3)C4)cc1)=N[C@@H](Cc1ncco1)c1nnc(C)n1-2 [I-368]	< 500	< 500			< 500	< 500		
Cc1sc2c(c1C)C(c1ccc(-c3ccc(C4CCN(c5ccc(C(=O)NC6CCC(Oc7ccc(C#N)c(Cl)c7)CC6)nn5)CC4)cc3)cc1)=N[C@@H](Cc1ncco1)c1nnc(C)n1-2 (stereo partly shown) [I-369]	< 500	> 3000			> 3000	> 3000		
Cc1sc2c(c1C)C(c1ccc(-c3ccc(C4CCN(c5ccc(C(=O)NC6CCC(Oc7ccc(C#N)c(Cl)c7)CC6)nn5)CC4)cc3)cc1)=N[C@H](Cc1ncco1)c1nnc(C)n1-2 (stereo partly shown) [I-370]	> 3000	500 to 1500			< 500	> 3000		
Cc1sc2c(c1C)C(c1ccc([C@H]3C[C@@H](C4CCN(c5ccc(C(=O)N[C@H]6CC[C@H](Oc7ccc(C#N)c(Cl)c7)CC6)nn5)CC4)C3)cc1)=N[C@@H](Cc1ncco1)c1nnc(C)n1-2 [I-371]	> 3000	> 3000			> 3000	> 3000		
